Patent US20130064815A1, “INDUCING APOPTOSIS IN QUIESCENT CELLS” (THE TRUSTEES OF PRINCETON UNIVERSITY, priority 2011, published 2013)
Where a SMILES comes first, the peptide text is derived from it. The star is where a group is joined. Cbz = O=C(OCc1ccccc1)*

What was measured:
[1] = tested on: superoxide; test: intracellular superoxide levels with dihydroethidium (DHE); type: cell-based, human; conditions: proteasome inhibition
Text: (§1) Other researchers have reported that there is a correlation between proliferative status and sensitivity to oxidative stress in human fibroblasts (Naderi et al., 2003, “Oxidative stress-induced apoptosis in dividing fibroblasts involves activation of p38 MAP kinase and over-expression of Bax: resistance of quiescent cells to oxidative stress, Apoptosis 8, 91-100, which is incorporated herein by reference as if fully set forth). […] A Western blot analysis was used to monitor the levels of the ROS detoxifying enzymes MnSOD and catalase, an enzyme that converts hydrogen peroxide to water and oxygen. The protein concentrations of MnSOD and catalase were higher in quiescent fibroblasts than in proliferating cells (FIG. 26B), consistent with a previous report (Sarsour et al., 2008, “Manganese superoxide dismutase activity regulates transitions between quiescent and proliferative growth, Aging cell 7, 405-417, which is incorporated herein by reference as if fully set forth). […] It was hypothesized that the higher levels of ROS-detoxifying enzymes in quiescent fibroblasts contributes to the protection of quiescent fibroblasts from proteasome inhibition-induced apoptosis. Intracellular superoxide levels were monitored using dihydroethidium (DHE), an indicator of superoxide anions.

[2] = tested on: primary human fibroblasts; test: caspase 3/7 activity apoptosis assay (ApoTox-Glo) in proliferating and quiescent fibroblasts; type: cell-based; conditions: MG132 0 to 10 μM; proliferating and serum-starved cells
Procedure: Referring to FIG. 2A, primary human fibroblasts were tested either in a proliferating state or after being induced into quiescence. Quiescence may be induced by either contact inhibition or serum starvation. Cells were treated with DHEA for four days, with bafilomycin added on the fourth day. Apoptosis was assessed based on the activity of caspase 3/7 for a fluorogenic substrate.
PPP inhibition and apoptosis analysis: Apoptosis was measured based on the levels of caspase 3/7 released into the media using the ApoTox-Glo Triplex Assay according to the manufacturer's instructions (Promega Corp., Madison, Wis.). Cells were plated in triplicate at 10,000 cells per well in white-walled, clear-bottom 96-well plates (Costar, Corning Life Sciences, Lowell, Mass.). For contact inhibition, cells were plated 7 days prior to the start of treatment, for serum starvation cells were plated 4 days prior to treatment and switched to 0.1% serum media for the remaining 3 days, while proliferating cells were plated the day prior to the start of treatment. […] Cells in serum starvation conditions were incubated in 0.1% serum during treatment as well. The apoptosis reagent was added at 100 μl per well and incubated for 1 h prior to reading. Luminescence was read from the top using a Synergy-2 plate reader (Biotek, Winooski, Vt.). Luminescence data were normalized to the vehicle only condition.
Apoptosis induction was assessed by monitoring caspase 3/7 activity using a luminescent caspase substrate. This assay is optimized for high-throughput screening in 96-well plates and allows multiple concentrations and combination of drugs to be tested in triplicate at different time points. […] Therefore, this assay was used to compare proliferating and serum-starved cells only.

[3] = tested on: proliferating and quiescent fibroblasts; test: annexin V / PI flow cytometry after proteasome inhibition; type: cell-based, human; conditions: for cells with signs of apoptosis: highest dose (10 μM)
Procedure: (§2) To elucidate the responses of proliferating and quiescent fibroblasts to proteasome inhibition, the effects of known proteasome inhibitors on proliferating and quiescent fibroblasts were examined.
(§3) At the highest dose (10 μM), approximately 50% of proliferating cells were apoptotic (FIG. 24A-lower right (Q4), upper right (Q2), and upper left (Q1) quadrants represent early apoptosis, late apoptosis, and very late apoptosis or necrosis, respectively). In comparison, quiescent fibroblasts were largely unaffected by MG132 treatment, showing far lower levels of apoptosis.

[4] = as above; type: cell-based, human; conditions: human
Procedure: as §2, §3

[5] = tested on: MnSOD; test: MnSOD expression after MG132 (microarray, Western blot); type: cell-based, human
Text: as §1

[6] = tested on: LC3-II; test: LC3-II immunoblot (autophagy / autophagic flux); type: cell-based, human; conditions: MG132 treatment; proliferating, contact-inhibited and serum-starved states
Procedure: The levels of autophagy components—Atg5/Atg12, Atg7, Atg3, and LC3-I and LC3-II—were monitored in proliferating and contact-inhibited fibroblasts using immunoblotting (FIG. 21A). As a positive control for autophagy induction, samples of cells in each cell cycle state were also incubated in Kreb's Ringer Bicarbonate solution (KRB), a protocol that induces autophagy through amino acid starvation and elimination of other nutrients except glucose. Levels of Atg5/Atg12, Atg7, and LC3-II were elevated in all of the amino acid starvation and contact-inhibition states as compared to the proliferating state (FIG. 21A). Atg3 was induced in all quiescent states compared with proliferating states, including amino acid starvation. In order to differentiate whether the high levels of autophagy proteins resulted from a blockade of autophagy degradation or active flux through the pathway, we monitored the levels of LC3-II in proliferating and 7 dCI fibroblasts in the presence of bafilomycin A1 (Baf-A1). Baf-A1 is a vacuolar-type H^+-ATPase inhibitor that prevents autophagosome fusion with the lysosome due to an increase in lysosomal pH. […] This finding is consistent with active autophagic flux in quiescent fibroblasts
In addition to its role in providing amino acids and energy under starvation conditions, autophagy is involved in maintenance of cellular homeostasis and resistance to tumorigenesis through degradation of old or damaged proteins and entire organelles. It was hypothesized that autophagy in contact-inhibited cells could function to degrade old and/or damaged proteins that would otherwise accumulate in the cytoplasm due to lack of cell division as a mechanism for dilution of these proteins. Oxidation of proteins causes the formation of carbonyl groups on amino acids, and carbonylation can disrupt protein function. To monitor the extent of protein oxidation in proliferating and contact-inhibited fibroblasts, the protein carbonyl groups were derivatized using 2,4-dinitrophenylhydrazine (DNP), and monitored using immunoblotting with an antibody that recognizes the covalently added DNP. The levels of oxidized proteins in proliferating and 7 dCI fibroblasts were monitored in cells that were either competent to perform autophagy (control), or were stably expressing an shRNA against the essential autophagy components Atg5 (sh-Atg5) or Atg7 (sh-Atg7), which are known to represent autophagy-defective phenotypes in other model systems. […] In contact-inhibited fibroblasts, in contrast, the levels of oxidized proteins increased 1.5-fold±0.1 in 7 dCI sh-Atg5 fibroblasts as compared to vector control counterparts (p=0.009) (FIG. 22B). […]
To test this hypothesis, the levels of an autophagy-specific form of the LC3 protein, LC3 II, were monitored compared to a housekeeping protein (Klionsky et al., 2008, “Guidelines for the use and interpretation of assays for monitoring autophagy in higher eukaryotes,” Autophagy 4, 151-175, which is incorporated herein by reference as if fully set forth). […]
We observed an increase in the ratio of LC3 II to GAPDH in response to MG132 treatment for cells in proliferating, contact-inhibited and serum-starved states (FIG. 25B). To test whether the high levels of LC3 II in quiescent cells in response to MG132 treatment result from a blockade of autophagy degradation or from active flux through the pathway, LC3 II levels were monitored in proliferating and quiescent fibroblasts treated with MG132 in the presence or absence of bafilomycin A1 (Baf). […]

CC(C)C[C@@H](C=O)NC(=O)[C@H](CC(C)C)NC(=O)[C@H](CC(C)C)NC(=O)OCc1ccccc1 [MG132] (Cbz-Leu-Leu-Leu-aldehyde)
superoxide levels ([1]; proliferating cells): significant induction of superoxide levels | superoxide levels ([1]; quiescent cells): maintained basal superoxide levels | caspase 3/7 activity [2]: dose-dependent increases | viability, quiescent vs proliferating fibroblasts ([3]; 48 hours of treatment): significantly higher number of quiescent fibroblasts maintained viability | cells with signs of apoptosis ([3]; contact-inhibited fibroblasts, 24 hours): approximately 14% | apoptotic cells (annexin V and PI) ([3]; proliferating cells, 10 μM, 24 hours): approximately 50% | proliferating cell viability (fraction PI negative) ([3]; proliferating cells, 24 hours): statistically significant, dose-dependent decrease | quiescent cell viability ([3]; quiescent cells, 24 hours, up to 10 μM MG132, 1 μM epoxomicin): maintained high viability | cells with signs of apoptosis ([3]; serum-starved fibroblasts, 24 hours): ~10% | cytotoxicity at 24 h, 10 μM [4]: ~50% | MnSOD protein levels ([5]; Western blot, proliferating and quiescent fibroblasts): further elevated MnSOD levels | MnSOD transcript expression ([5]; microarray, proliferating and quiescent cells): induced MnSOD expression | ratio of LC3 II to GAPDH [6]: increase
